Measured values taken from patent US10562944B2, “Herbicide-resistant protein, encoding gene and use thereof” (BEIJING DABEINONG BIOTECHNOLOGY CO., LTD., priority 2015, dated 2020).

Key:
[1] = tested on: Arabidopsis T1 plants transformed with 24DT21 nucleotide sequence; experiment: Herbicide resistance effect test of transgenic Arabidopsis T1 plants (spraying); assay type: in vivo, Arabidopsis thaliana; details: genotype 24DT21, 560 g ae/ha (1x)
Source text: (§1) 24DT21 gene was used to transform Arabidopsis for the first time. At first, T1 transformants were selected from the background of un-transformed seeds, using glufosinate-ammonium selection scheme. About 20000 T1 seeds are screened among which 139 strains of T1 generation positive transformants (PAT gene) were identified, i.e. the transformation efficiency was about 0.7%. Herbicide resistance effect tests to 2,4-D dimethyl ammonium salt and agroxone of Arabidopsis T1 plants transformed with 24DT21 nucleotide sequence, control nucleotide sequence respectively and wild-type Arabidopsis plants were performed after 18 days of planting.
(§2) Arabidopsis T1 plants transformed with 24DT21 nucleotide sequence, control nucleotide sequence respectively and wild-type Arabidopsis plants were sprayed with 2,4-D dimethyl ammonium salt (560 g ae/ha, 1-fold concentration in field), agroxone (560 g ae/ha, 1-fold concentration in field) and blank solvent (water). Resistance conditions of the plants were counted 7 days and 14 days after spraying. Plants with growth conditions consistent with blank solvent (water) 7 days after spaying were classified as highly resistant plants; Plants with curly rosette leaves 7 days after spaying were classified as moderately resistant plants; Plants incapable of bolting 14 days after spaying were classified as low-resistant plants and the dead plants 14 days after spaying were classified as non-resistant plants. Because each Arabidopsis T1 plant is an independent transformation event, significant differences of individual T1 responses can be expected under a given dose.

[2] = tested on: Arabidopsis T1 plants transformed with control nucleotide sequence; experiment: Herbicide resistance effect test of Arabidopsis T1 plants, control sequence (spraying); assay type: in vivo, Arabidopsis thaliana; details: genotype Control, 560 g ae/ha (1x)
Source text: as §1, §2

[3] = tested on: wild-type Arabidopsis plants; experiment: Herbicide resistance effect test of wild-type Arabidopsis (spraying); assay type: in vivo, Arabidopsis thaliana; details: genotype Wild, 560 g ae/ha (1x)
Source text: as §1, §2

[4] = tested on: Soybean plants containing 24DT21 nucleotide sequence (S1, S2, S3); experiment: Herbicide-resistance effect of transgenic soybean T1 plants (spraying, damage degree); assay type: in vivo; details: 2240 g ae/ha (4x); for Average damage % 6 HAT: 6 hours after spraying; for Average damage % 2 DAT: 2 days after spraying; for Average damage % 7 DAT: 7 days after spraying; for Average damage % 14 DAT: 14 days after spraying
Method: (§3) Herbicide resistance effects tests to 2,4-D dimethyl ammonium salt and agroxone of soybean plants containing 24DT21 nucleotide sequence and control nucleotide sequence respectively and wild type soybean plants (stages V3-V4) were performed respectively.
(§4) Soybean plants containing 24DT21 nucleotide sequence, control nucleotide sequence and wild type soybean plants were taken and spayed with 2,4-D dimethyl ammonium salt (2240 g ae/ha, four-folds concentration in field), agroxone (2240 g ae/ha, four-folds concentration in field) and blank solvent (water). Take statistics of the damage degree of each plant caused by herbicides according to the curling degree of leaves and the damage degree of growing point six hours ([…]), two days (2DAT), seven days (7DAT) and 14 days (14DAT) after spraying respectively: if leaves are flat like wild-type leaves and the growing point is intact, the damage degree is 0%; if leaves curl up and wilt and the growing point is died, the damage degree is 100%. There are three strains contained a transferred 24DT21 nucleotide sequence (S1, S2 and S3), two strains contained a transferred control sequence (S4 and S5) and one wild-type strain (CK1) in total; select 10˜15 plants from each strain for testing.

[5] = tested on: Soybean plants containing control nucleotide sequence (S4, S5); experiment: Herbicide-resistance effect of soybean plants, control sequence (spraying, damage degree); assay type: in vivo; details: 2240 g ae/ha (4x); for Average damage % 6 HAT: 6 hours after spraying; for Average damage % 2 DAT: 2 days after spraying; for Average damage % 7 DAT: 7 days after spraying; for Average damage % 14 DAT: 14 days after spraying
Method: as §3, §4

[6] = tested on: wild type soybean plants (CK1); experiment: Herbicide-resistance effect of wild type soybean (spraying, damage degree); assay type: in vivo; details: wild-type soybean strain CK1, 2240 g ae/ha (4x)
Method: as §3, §4

[7] = tested on: Corn plants containing 24DT21 nucleotide sequence (S6, S7, S8); experiment: Herbicide-resistance effect test of transgenic corn T1 plants (spraying, prop root development); assay type: in vivo; details: 8960 g ae/ha (16x), 21 days after spraying; for Abnormal development of brace roots / Normal development of brace roots: number of plants
Method: (§5) Herbicide resistance effects tests to 2,4-D dimethyl ammonium salt and agroxone of corn plants containing 24DT21 nucleotide sequence, control nucleotide sequence respectively and wild type corn plants (stages V3-V4) were performed respectively.
(§6) Corn plants containing 24DT21 nucleotide sequence, control nucleotide sequence respectively and wild type corn plants were taken and spayed with 2,4-D dimethyl ammonium salt (8960 g ae/ha, 16-folds concentration in field), agroxone (8960 g ae/ha, 16-folds concentration in field) and blank solvent (water) respectively. Prop root development was counted 21 days after spaying. Three strains (S6, S7 and S8) of corn plants transformed with 24DT21 nucleotide sequence, two strains (S9 and S10) of corn plants transformed with control nucleotide sequence and 1 strain of wild type (CK2) corn were selected and 10-15 plants from each stain were tested.

[8] = tested on: Corn plants containing control nucleotide sequence (S9, S10); experiment: Herbicide-resistance effect test of corn plants, control sequence (spraying, prop root development); assay type: in vivo; details: 8960 g ae/ha (16x), 21 days after spraying; for Abnormal development of brace roots / Normal development of brace roots: number of plants
Method: as §5, §6

[9] = tested on: wild type corn plants (CK2); experiment: Herbicide-resistance effect test of wild type corn (spraying, prop root development); assay type: in vivo; details: wild type corn strain CK2, 8960 g ae/ha (16x), 21 days after spraying
Method: as §5, §6

[10] = number of plants of 32 dead 14 days after spraying
[11] = number of plants of 32 incapable of bolting 14 days after spraying
[12] = number of plants of 32 with curly rosette leaves 7 days after spraying
[13] = number of plants of 32 with growth consistent with blank solvent 7 days after spraying
[14] = soybean strain S4 (control sequence)
[15] = soybean strain S5 (control sequence)
[16] = corn strain S9 (control sequence)
[17] = corn strain S10 (control sequence)

CNC.O=C(O)COc1ccc(Cl)cc1Cl [2,4-D dimethyl ammonium salt]
Non-resistant [1, 10]: 4
Low resistant [1, 11]: 1
Moderate resistant [1, 12]: 3
High resistant [1, 13]: 24
Non-resistant [2, 10]: 32
Low resistant [2, 11]: 0
Moderate resistant [2, 12]: 0
High resistant [2, 13]: 0
Non-resistant [3, 10]: 32
Low resistant [3, 11]: 0
Moderate resistant [3, 12]: 0
High resistant [3, 13]: 0
Average damage % 6 HAT ([4]; soybean strain S1 (24DT21)): 6%
Average damage % 2 DAT ([4]; soybean strain S1 (24DT21)): 4%
Average damage % 7 DAT ([4]; soybean strain S1 (24DT21)): 0%
Average damage % 14 DAT ([4]; soybean strain S1 (24DT21)): 0%
Average damage % 6 HAT ([4]; soybean strain S2 (24DT21)): 11%
Average damage % 2 DAT ([4]; soybean strain S2 (24DT21)): 4%
Average damage % 7 DAT ([4]; soybean strain S2 (24DT21)): 0%
Average damage % 14 DAT ([4]; soybean strain S2 (24DT21)): 0%
Average damage % 6 HAT ([4]; soybean strain S3 (24DT21)): 3%
Average damage % 2 DAT ([4]; soybean strain S3 (24DT21)): 0%
Average damage % 7 DAT ([4]; soybean strain S3 (24DT21)): 0%
Average damage % 14 DAT ([4]; soybean strain S3 (24DT21)): 0%
Average damage % 6 HAT [5, 14]: 46%
Average damage % 2 DAT [5, 14]: 76%
Average damage % 7 DAT [5, 14]: 96%
Average damage % 14 DAT [5, 14]: 100%
Average damage % 6 HAT [5, 15]: 53%
Average damage % 2 DAT [5, 15]: 77%
Average damage % 7 DAT [5, 15]: 91%
Average damage % 14 DAT [5, 15]: 100%
Average damage % 6 HAT ([6]; 6 hours after spraying): 48%
Average damage % 2 DAT ([6]; 2 days after spraying): 72%
Average damage % 7 DAT ([6]; 7 days after spraying): 94%
Average damage % 14 DAT ([6]; 14 days after spraying): 100%
Proportion of normal development of brace roots ([7]; corn strain S6 (24DT21)): 100.00%
Abnormal development of brace roots ([7]; corn strain S6 (24DT21)): 0
Normal development of brace roots ([7]; corn strain S6 (24DT21)): 12
Proportion of normal development of brace roots ([7]; corn strain S7 (24DT21)): 100.00%
Abnormal development of brace roots ([7]; corn strain S7 (24DT21)): 0
Normal development of brace roots ([7]; corn strain S7 (24DT21)): 13
Proportion of normal development of brace roots ([7]; corn strain S8 (24DT21)): 100.00%
Abnormal development of brace roots ([7]; corn strain S8 (24DT21)): 0
Normal development of brace roots ([7]; corn strain S8 (24DT21)): 11
Proportion of normal development of brace roots [8, 16]: 0%
Abnormal development of brace roots [8, 16]: 12
Normal development of brace roots [8, 16]: 0
Proportion of normal development of brace roots [8, 17]: 0%
Abnormal development of brace roots [8, 17]: 11
Normal development of brace roots [8, 17]: 0
Proportion of normal development of brace roots [9]: 0%
Abnormal development of brace roots ([9]; number of plants): 15
Normal development of brace roots ([9]; number of plants): 0
